Data: patent US9808448B2, “Pharmaceutical compounds and use of same in cancer and tauopathies” (THE REGENTS OF THE UNIVERSITY OF MICHIGAN, priority 2013, dated 2017)
“Also recorded” adds a separate entry of the source. Like-named read-outs stand apart in the source and are kept apart here.

What was measured:
[1] = biological target: yeast Hsp70 (Ssa1p) and Hlj1p (Saccharomyces cerevisiae, UniProt P10591); experiment: Single turnover ATPase assay; format: biochemical
Protocol: Next, the effect of chaperone functions by binding of YM-08 to Hsp70 was investigated. […] This profile is shared with other allosteric Hsp70 inhibitors. As another test of chaperone function, the effects of the compounds on the binding of Hsp70 to a misfolded protein were measured. In previous work, MKT-077 stabilized the interaction between prokaryotic Hsp70 (DnaK) and denatured luciferase. Briefly, this assay involves immobilizing unfolded luciferase in microtiter plates and measuring binding to DnaK. […] To explore whether YM-08 might also enhance binding of Hsp70 to a more physiologically relevant substrate, binding of tau to immobilized human Hsc70 was measured.
Single turnover ATPase assays were performed as previously described in, e.g., Fewell, et al., J. Biol. Chem., 279:51131-51140 (2004), and Chiang, et al., Bioorg. Med. Chem., 17:1527-1533 (2009). Briefly, the yeast Hsp70, Ssa1p (about 0.2 μM), was prebound to α-[32P]ATP. The hydrolysis of ATP in the presence or absence of an equimolar amount of Hlj1 was measured by monitoring the generation of α-[32P]ADP by thin layer chromatography (TLC).

[2] = system: MCF-7, MCF-10A and MB-MDA-231 cells; experiment: MTT assays, three cell lines; format: cell-based; conditions: range over MCF-7, MCF-10A and MB-MDA-231 cells
Protocol: YM-08 was tested whether it might retain the anti-cancer activity of MKT-077.

Hsp72 (HSPA1) = biological target: T1, Hsp72 (HSPA1) (Homo sapiens, UniProt P0DMV8); experiment: Biolayer interferometry (Octet Red), Hsp72; format: binding; conditions: immobilized full length Hsp72
T1 construct: Biotinylated human Hsc70NBD or full length Hsp72 were first immobilized; made in house
T1 sequence (P0DMV8 whole entry): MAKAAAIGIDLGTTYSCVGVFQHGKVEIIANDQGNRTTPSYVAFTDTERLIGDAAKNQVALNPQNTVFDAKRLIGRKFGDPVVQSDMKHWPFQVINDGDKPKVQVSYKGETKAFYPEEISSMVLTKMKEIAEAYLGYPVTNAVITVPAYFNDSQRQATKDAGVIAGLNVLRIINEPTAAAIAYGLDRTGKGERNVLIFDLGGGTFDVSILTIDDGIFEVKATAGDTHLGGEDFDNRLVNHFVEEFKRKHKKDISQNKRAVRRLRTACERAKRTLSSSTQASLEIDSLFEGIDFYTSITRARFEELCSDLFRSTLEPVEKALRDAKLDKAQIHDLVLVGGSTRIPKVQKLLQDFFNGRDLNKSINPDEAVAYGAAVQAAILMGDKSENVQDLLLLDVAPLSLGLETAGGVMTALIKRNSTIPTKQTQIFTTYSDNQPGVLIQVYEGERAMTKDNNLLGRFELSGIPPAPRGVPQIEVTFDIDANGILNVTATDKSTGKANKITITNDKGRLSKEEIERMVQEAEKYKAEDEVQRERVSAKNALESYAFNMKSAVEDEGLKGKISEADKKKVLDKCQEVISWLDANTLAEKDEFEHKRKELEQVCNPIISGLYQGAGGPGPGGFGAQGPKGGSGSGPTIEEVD
Protocol: Binding of MKT-077 analogs to immobilized Hsp70 was evaluated using a competitive ELISA. In this established assay, a biotinylated version of MKT-077 is bound to immobilized human Hsc70 (HSPA8) and potential competitors are tested for their ability to block the interaction. […] As further controls, the truncated compounds YM-02, YM-03, YM-04 and YM-07 were tested.
Biotinylated human Hsc70NBD or full length Hsp72 were first immobilized on super streptavidin biosensors (ForteBio, 18-5057) as follows: biosensors were soaked with MG buffer (100 mM Tris base, 20 mM KCl, 6 mM MgCl2, 0.01% Triton X-100, pH 7.4) for 10 min before moving them to wells either containing 200 μL […] biotinylated proteins or […] biocytin for 60 min. The free streptavidin sites were subsequently quenched with […] biocytin for 10 min. The biosensors were washed with MG buffer for 5 min prior to beginning the binding experiments. The association and disassociation steps were carried out in MG buffer with a constant 10% DMSO concentration. All steps were performed at room temperature and with 1000 rpm rotary shaking. […] The apparent affinities of YM-08 for Hsc70NBD and Hsp72 were calculated from both equilibrium measurements and global fits of the kon and koff values, yielding similar values.

[3] = system: total and phospho-tau in wild type brain slices; experiment: Tau levels in wild type brain slice cultures; format: cell-based, mouse
Protocol: YM-08 activity in a more physiological system was tested. Brain slice cultures from transgenic mice that express mutated tau were treated for 6 hours with YM-08 and the levels of total- and pS396/404 tau measured by Western blots. […] To test whether YM-08 might selectively reduce tau after microtubule disruption, brain slices were cultured from wild type mice and treated them with YM-08 plus the microtubule destabilizer, nocodazole. […] Together, these studies add to growing evidence that Hsp70 selectively identifies tau variants that are not associated with the normal microtubule network, likely minimizing their aggregation and proteotoxicity.

[4] = Pharmacokinetics of YM-08 in plasma and brain, CD1 mice; format: in vivo, mouse
Protocol: The initial pharmacokinetics (PK) of YM-01 and YM-08 were tested in CD1 mice. […] After a single 6.6 mg/kg dose delivered i.v., the peak brain concentration of YM-08 was 4 μg/g (FIG. 7B) and the ratio in the brain:plasma (B/P) ratio was approximately 0.25 for 18 hrs (FIG. 7C). […] It is not yet clear how much tau levels need to be reduced to achieve therapeutic effects in disease models, but the area-under-the-curve (AUCinf) for YM-08 in the brain was 0.26 μg·hr/g and the AUCinf in plasma was 13.6 μg·hr/mL.
Female CD-1 mice (25-30 g in body weight) were purchased from Charles River Laboratories (Wilmington, Mass.). Mice were treated with 6 mg/kg YM-08 through the tail-vein injection. The plasma and brain were collected at 0.016, 0.08, 0.16, 0.25, 0.5, 1, 2, 4, 6, 13, 18, 24 and 48 h after drug administration. Whole blood samples were drawn through the cardiac puncture using a heparinized syringe with a 22 gauge needle, followed by centrifugation at 3,000 g for 10 min at 4° C. to obtain plasma. Collected tissues were washed with PBS, immediately frozen using liquid nitrogen, and stored at −80° C. until further analysis. Tissue homogenates were prepared by adding PBS (1:5 w/v, homogenate/PBS) and homogenization for 3 min. Compound was extracted from 100 μL of sample by adding 300 μL of acetonitrile containing 50 ng/mL IS, followed by vortexing for 3 min. The supernatant was collected and subjected to LC-MS/MS analysis.
The separation of YM-08 and internal standard was performed using Agilent 1200 HPLC system (Agilent Technologies, Santa Clara, Calif.) and Zobarx SB-C18 column (2.1×50 mm, 3.5 μm) (Agilent Technologies). […] The compounds were eluted with an fixed gradient of 20% solvent A and 80% of solvent B. Solvent A consisted of 0.1% (v/v) glacial acetic acid in water and solvent B consisted of 0.1% (v/v) glacial acetic acid in acetonitrile. After injecting 10 μl of samples into HPLC system, the elution was performed over 2 min at a flow rate of 0.4 ml/min. The YM-08 and MKT-077 eluents were detected using QTRAP 3200 mass spectrometer (Applied Biosystems/MDS Sciex, Foster City, Calif.) equipped with an electrospray ionization source (ESI). The temperature of ESI was set at 650° C. and curtain gas, gas 1, and gas 2 were set to 30, 50, and 50 units, respectively. A positive voltage at 5500 V was applied through ESI to convert the eluents to ions in the form of MH+. The ions were detected using a MRM mode. The ion transitions from the precursor ion (m/z 368) to the fragment ion (m/z=222) and from the precursor ion (m/z 396) to the fragment ion (m/z=175) were used to detect YM-08 and IS, respectively.

Sequence of yeast Hsp70 (Ssa1p) and Hlj1p (P10591 whole entry): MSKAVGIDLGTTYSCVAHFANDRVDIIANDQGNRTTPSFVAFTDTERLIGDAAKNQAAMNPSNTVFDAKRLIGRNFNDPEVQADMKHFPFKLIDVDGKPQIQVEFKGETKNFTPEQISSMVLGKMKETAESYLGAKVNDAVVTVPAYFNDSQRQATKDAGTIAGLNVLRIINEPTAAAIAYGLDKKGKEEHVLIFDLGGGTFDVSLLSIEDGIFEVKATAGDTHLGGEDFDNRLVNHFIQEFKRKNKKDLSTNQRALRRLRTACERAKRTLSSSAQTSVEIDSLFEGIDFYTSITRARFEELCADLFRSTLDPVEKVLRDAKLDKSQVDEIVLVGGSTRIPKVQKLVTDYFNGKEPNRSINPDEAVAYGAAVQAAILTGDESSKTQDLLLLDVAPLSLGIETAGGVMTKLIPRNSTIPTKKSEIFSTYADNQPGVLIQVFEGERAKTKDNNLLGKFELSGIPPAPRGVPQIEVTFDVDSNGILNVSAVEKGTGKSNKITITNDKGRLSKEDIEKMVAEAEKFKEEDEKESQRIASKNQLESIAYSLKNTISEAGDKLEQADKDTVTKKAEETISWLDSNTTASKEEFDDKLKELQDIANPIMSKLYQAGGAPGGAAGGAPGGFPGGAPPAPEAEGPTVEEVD

CCn1c(=O)/c(=C2\Sc3ccccc3N2C)s/c1=C\c1ccccn1 [YM-08, (2Z,5E)-3-ethyl-5-(3-methylbenzo[d]thiazol-2(3H)-ylidene)-2-(pyridin-2-ylmethylene)thiazolidin-4-one]
ATP turnover, Hlj1-stimulated ATPase activity ([1]; Ssa1 plus Hlj1): partially inhibited | intrinsic ATPase activity of Ssa1 ([1]; without Hlj1): minimal effect | EC50 [2]: 7.8 to 10.5 µM | Kd (Hsp72 (HSPA1)): ~2 µM | tau levels, YM-08 alone [3]: unchanged; also recorded: did not significantly reduce tau levels | total and phospho-tau levels, plus nocodazole ([3]; microtubule disruption): decreased levels of both total and phospho-tau | AUCinf in the brain ([4]; 6.6 mg/kg i.v.): 0.26 µg·h/g | half-life ([4]; female, CD-1, mouse, brain, iv, 6.6 mg/kg i.v., read-out: terminal halftime in the brain (t1/2; brain) (converted)): 6.8 h | Kp at 18 h ([4]; female, CD-1, mouse, brain/plasma, iv, 6.6 mg/kg, 6.6 mg/kg i.v., for 18 hrs, read-out: brain:plasma (B/P) ratio): ~0.25 | AUC(0-inf) ([4]; female, CD-1, mouse, plasma, iv, 6.6 mg/kg i.v., read-out: AUCinf in plasma): 13600 ng·h/mL | half-life ([4]; female, CD-1, mouse, plasma, iv, 6.6 mg/kg i.v., read-out: t1/2, plasma (converted)): 9.8 h | peak brain concentration ([4]; single 6.6 mg/kg i.v., Cremophor mixture): 4 µg/g
